19 molecules from patent US20250171423A1, “PHARMACEUTICAL COMPOUNDS FOR THE TREATMENT OF COMPLEMENT MEDIATED DISORDERS” (Achillion Pharmaceuticals, Inc., priority 2020, published 2025) can be followed below.

The structures appear in SMILES notation. pIC50: −log10 of the molar value. Where a name gives a salt, the structure may show the parent alone. Some results are limits rather than exact numbers.

The target in the assay is T1, Human complement C1s enzyme (Homo sapiens, UniProt P09871).
T1 construct: purified from human serum, Complement Technology, Inc; purchased Complement Technology, Inc; host or cells: human serum
T1 sequence (P09871 438-688 limits assumed): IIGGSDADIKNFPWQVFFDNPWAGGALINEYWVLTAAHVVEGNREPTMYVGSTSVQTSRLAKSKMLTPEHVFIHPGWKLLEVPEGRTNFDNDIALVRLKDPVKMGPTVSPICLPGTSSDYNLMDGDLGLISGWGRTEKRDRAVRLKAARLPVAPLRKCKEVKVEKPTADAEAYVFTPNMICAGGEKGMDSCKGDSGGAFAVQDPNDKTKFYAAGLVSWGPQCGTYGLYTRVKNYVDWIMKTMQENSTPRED
T1 sequence (P09871 16-437 partner limits assumed): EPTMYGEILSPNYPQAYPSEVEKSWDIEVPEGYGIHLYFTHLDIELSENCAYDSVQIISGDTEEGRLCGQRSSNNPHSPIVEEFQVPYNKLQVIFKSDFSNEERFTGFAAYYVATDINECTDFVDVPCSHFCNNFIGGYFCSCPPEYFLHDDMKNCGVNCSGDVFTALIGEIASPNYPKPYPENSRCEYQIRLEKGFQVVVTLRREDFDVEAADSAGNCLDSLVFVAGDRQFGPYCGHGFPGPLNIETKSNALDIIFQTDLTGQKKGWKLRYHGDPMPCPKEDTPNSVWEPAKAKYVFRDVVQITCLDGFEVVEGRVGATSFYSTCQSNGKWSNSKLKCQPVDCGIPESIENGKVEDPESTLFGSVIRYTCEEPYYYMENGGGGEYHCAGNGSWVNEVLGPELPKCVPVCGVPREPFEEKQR
Briefly: Human C1s Enzyme Assay. Format: biochemical. The conditions noted are these: human C1s 1.16 nM, 5 min preincubation, substrate Z-L-Lys-SBzl 100 μM, A405; read-out: C1s Protease Activity. How it is done: The assay of Example 3 was used to determine the IC50's of the compounds. Other standard complement assays are also available.
Example 3. Human C1s Enzyme Assay
Human complement C1s enzyme (purified from human serum, Complement Technology, Inc.) at 1.16 nM final concentration was incubated with test compound at various concentrations for 5 min at room temperature in 50 mM Tris, 1 M NaCl, pH 7.5. A synthetic substrate Z-L-Lys-SBzl and DTNB (Ellman's reagent) were added to final concentrations of 100 μM each. Absorbance at 405 nm (A405) was recorded at 30 second intervals for 30 min using a microplate spectrophotometer. IC50 values were calculated by nonlinear regression of complement C1s reaction rates as a function of test compound concentration.
Turning to `C[C@@]12C[C@@H]1N(C(=O)CNC(=O)CCOc1ccccc1)[C@H](C(=O)NCc1cc(C(=N)N)cs1)C2` [Compound 58, (1S,3S,5S)-N-((4-carbamimidoylthiophen-2-yl)methyl)-5-methyl-2-((3-phenoxy-propanoyl)glycyl)-2-azabicyclo[3.1.0]hexane-3-carboxamide], the pIC50 was above 7.00.

With `C[C@H](O)[C@H](O)[C@@H](O)[C@@H](O)CNCC(=O)N1[C@H]2C[C@@]2(C)C[C@H]1C(=O)NCc1cc(C(=N)N)cs1` [Compound 24, (1S,3S,5S)-N-((4-carbamimidoylthiophen-2-yl)methyl)-5-methyl-2-(((2S,3S,4S,5S)-2,3,4,5-tetrahydroxyhexyl)glycyl)-2-azabicyclo[3.1.0]hexane-3-carboxamide hydrochloride], the pIC50 was below 6.00.

Consider `CCCCCCOC(=O)/N=C(\N)c1csc(CNC(=O)[C@@H]2C[C@]3(C)C[C@@H]3N2C(=O)CNC(=O)c2ccc(Oc3ccccc3)cc2)c1` [Compound 12, hexyl ((Z)-amino(5-(((1S,3S,5S)-5-methyl-2-((4-phenoxybenzoyl)glycyl)-2-azabicyclo-[3.1.0]hexane-3-carboxamido)methyl)thiophen-3-yl)methylene)carbamate], for which the pIC50 was below 6.00.

With `C[C@@]12C[C@@H]1N(C(=O)CNC(=O)c1ccc(Oc3ccccc3)cc1)[C@H](C(=O)N(O)Cc1cc(C(=N)N)cs1)C2` [Compound 127, (1S,3S,5S)-N-((4-carbamimidoylthiophen-2-yl)methyl)-N-hydroxy-5-methyl-2-((4-phenoxybenzoyl)glycyl)-2-azabicyclo[3.1.0]hexane-3-carboxamide], the pIC50 was below 6.00.

In the case of `C[C@@]12C[C@@H]1N(C(=O)CNC(=O)c1ccc(Oc3ccccc3)cc1)[C@H](C(=O)NCc1nnc(C(=N)N)o1)C2` [Compound 201, (1S,3S,5S)-N-((5-carbamimidoyl-1,3,4-oxadiazol-2-yl)methyl)-5-methyl-2-((4-phenoxybenzoyl)glycyl)-2-azabicyclo[3.1.0]hexane-3-carboxamide], the pIC50 is below 6.00.

`COC(=O)C(NC(=O)[C@@H]1C[C@@H](OC(F)F)CN1C(=O)CNC(=O)c1ccc(Oc2ccccc2)cc1)c1cc(C(=N)N)cs1` (stereo partly drawn) [Compound 189, methyl 2-(4-carbamimidoylthiophen-2-yl)-2-((2S,4R)-4-(difluoromethoxy)-1-((4-phenoxybenzoyl)glycyl)pyrrolidine-2-carboxamido)acetate]: the pIC50 was below 6.00.

For `N=C(N)c1csc(CNC(=O)[C@@H]2CC[C@@H]3CC[C@H](NC(=O)c4ccc(Oc5ccccc5)cc4)C(=O)N32)c1` [Compound 211, (3S,6S,8aS)-N-((4-carbamimidoylthiophen-2-yl)methyl)-5-oxo-6-(4-phenoxybenzamido)octahydroindolizine-3-carboxamide], the pIC50 was 6.00 to 7.00.

Regarding `C[C@@H](NC(=O)[C@@H]1C[C@]2(C)C[C@@H]2N1C(=O)CNC(=O)c1ccc(Oc2ccccc2)cc1)c1cc(-c2ncc[nH]2)cs1` [Compound 240, (1S,3S,5S)-N-((R)-1-(4-(1H-imidazol-2-yl)thiophen-2-yl)ethyl)-5-methyl-2-((4-phenoxybenzoyl)glycyl)-2-azabicyclo[3.1.0]hexane-3-carboxamide], the pIC50 was above 7.00.

In the case of `COC[C@@]12C[C@@H]1N(C(=O)CNC(=O)c1ccc(Oc3ccccc3)cc1)[C@H](C(=O)NCc1cc(C(=N)N)cs1)C2` [Compound 20, (1S,3S,5R)-N-((4-carbamimidoylthiophen-2-yl)methyl)-5-(methoxymethyl)-2-((4-phenoxybenzoyl)glycyl)-2-azabicyclo[3.1.0]hexane-3-carboxamide], the pIC50 was above 7.00.

Consider `N=C(N)c1csc([C@@H](Cc2ccccc2)NC(=O)[C@@H]2CC3(CN2C(=O)CNC(=O)CCCOc2ccccc2)OCCO3)c1` [Compound 176, (S)-N-((R)-1-(4-carbamimidoylthiophen-2-yl)-2-phenylethyl)-7-((4-phenoxybutanoyl)glycyl)-1,4-dioxa-7-azaspiro[4.4]nonane-8-carboxamide], for which the pIC50 is below 6.00.

Turning to `N=C(N)c1csc(CNC(=O)[C@@H]2C[C@](F)(CO)CN2C(=O)CNC(=O)CCCOc2ccccc2)c1` [Compound 66, (2S,4R)-N-((4-carbamimidoylthiophen-2-yl)methyl)-4-fluoro-4-(hydroxymethyl)-1-((4-phenoxybutanoyl)glycyl)pyrrolidine-2-carboxamide], the pIC50 is above 7.00.

Take `C[C@@]12C[C@@H]1N(C(=O)CN1Cc3ccc(Oc4ccccc4)cc3C1=O)[C@H](C(=O)NCc1cc(C(=N)N)cs1)C2` [Compound 144, (1S,3S,5S)-N-[(4-carbamimidoylthiophen-2-yl)methyl]-5-methyl-2-[2-(1-oxo-6-phenoxy-3H-isoindol-2-yl)acetyl]-2-azabicyclo[3.1.0]hexane-3-carboxamide]: the pIC50 is above 7.00.

For the molecule `C[C@@]12C[C@@H]1N(C(=O)CNC(=O)c1ccc3c(c1)-c1ccccc1C3(F)F)[C@H](C(=O)NCc1cc(C(=N)N)cs1)C2` [Compound 103, (1S,3S,5S)-N-((4-carbamimidoylthiophen-2-yl)methyl)-2-((9,9-difluoro-9H-fluorene-3-carbonyl)glycyl)-5-methyl-2-azabicyclo[3.1.0]hexane-3-carboxamide], the pIC50 is above 7.00.

With `N=C(N)c1csc(CNC(=O)[C@@H]2C[C@@H](C3CCCCC3)CN2C(=O)CNC(=O)c2ccc(Oc3ccccc3)cc2)c1` [Compound 61, (2S,4S)-N-((4-carbamimidoylthiophen-2-yl)methyl)-4-cyclohexyl-1-((4-phenoxy-benzoyl)glycyl)pyrrolidine-2-carboxamide], the pIC50 was 6.00 to 7.00.

`N=C(N)c1csc([C@H](NC(=O)[C@@H]2CC3(CN2C(=O)CNC(=O)CCCOc2ccccc2)OCCO3)C2CCCC2)c1` [Compound 174, (S)-N-((R)-(4-carbamimidoylthiophen-2-yl)(cyclopentyl)methyl)-7-((4-phenoxybutanoyl)glycyl)-1,4-dioxa-7-azaspiro[4.4]nonane-8-carboxamide]: the pIC50 is below 6.00.

Regarding `N=C(N)c1csc(CNC(=O)[C@@H]2C[C@]3(CCO3)CN2C(=O)CNC(=O)c2ccc(Oc3ccccc3)cc2)c1` [Compound 195, (4S,7S)-N-((4-carbamimidoylthiophen-2-yl)methyl)-6-((4-phenoxybenzoyl)glycyl)-1-oxa-6-azaspiro[3.4]octane-7-carboxamide], the pIC50 was above 7.00.

Turning to `C[C@@]12C[C@@H]1N(C(=O)CNC(=O)c1ccc(Oc3ccccc3)cn1)[C@H](C(=O)NCc1cc(C(=N)N)cs1)C2` [Compound 93, (1S,3S,5S)-N-((4-carbamimidoylthiophen-2-yl)methyl)-5-methyl-2-((5-phenoxy-picolinoyl)glycyl)-2-azabicyclo[3.1.0]hexane-3-carboxamide], the pIC50 is above 7.00.

On to `N=C(N)c1csc(CNC(=O)[C@@H]2CC3(CC3)CN2C(=O)CNC(=O)CCCOc2ccccc2)c1` [Compound 55, (S)-N-((4-carbamimidoylthiophen-2-yl)methyl)-5-((4-phenoxybutanoyl)glycyl)-5-azaspiro[2.4]heptane-6-carboxamide], for which the pIC50 is above 7.00.

Consider `C[C@@]12C[C@@H]1N(C(=O)CNC(=O)c1ccc(Oc3ccccc3)cc1)[C@H](C(=O)NCc1cc(/C(N)=N/S(N)(=O)=O)cs1)C2` [Compound 205, (1S,3S,5S)-5-methyl-2-((4-phenoxybenzoyl)glycyl)-N-((4-(N-sulfamoylcarbamimidoyl)thiophen-2-yl)methyl)-2-azabicyclo[3.1.0]hexane-3-carboxamide], for which the pIC50 was below 6.00.
